Our source for the IC50 values is patent US10202350B2, “MCT4 inhibitors for treating disease” (Vettore, LLC, priority 2015, dated 2019).

One test has as its target MCT4 (Homo sapiens (Human), UniProt O15427). In words: MCT4-mediated lactate transport in MDA-MB-231 breast cancer cells. It counts as cell-based. The note with it: MDA-MB-231 cells, native MCT4; 50 mM L-lactate. As for the experimental part: (§1) 10 μL of a 30 mM DMSO stock of BCECF-AM ester (Life Technologies) is added and the cells are incubated at 37° C. for 5 min. The cells are pelleted (300 g, 5 min), washed once with 1 mL Tyrode's Solution, pH 7.4, re-pelleted (300 g, 5 min), and resuspended in 1 mL Tyrode's Solution, pH 7.4.
(§2) 2.5 μL BCECF-loaded cells, along with either 10 μL DMSO or 100×compound in DMSO, are added to 937.5 μL of Tyrode's Solution in a quartz 1.0 mL cuvette (PerkinElmer, B0631116). […] After establishing baseline BCECF fluorescence (around 10-20 s), 50 μL of 1 M sodium L-lactate (Sigma-Aldrich) is added to the cuvette (final concentration: 50 mM) and rapidly mixed. The time-dependent decrease in BCECF fluorescence (490/440 ratio) may be fit to an exponential decay curve (Prism GraphPad) to determine the rate of lactate transport.
Preparation of BCECF-loaded cells and lactate transport activity may be determined as described for Assay 1.

For another test, the target named is MCT1 (Homo sapiens (Human), UniProt P53985). In words: MCT1-mediated lactate transport in BT20 breast cancer cells. It counts as cell-based. The following applies: native MCT1, 10 mM L-lactate, Table 3. As to the method:
as §1, §2
Assay 4: MCT1-Mediated Lactate Transport in BT20 Breast Cancer Cells.
Preparation of BCECF loaded cells are as described for Assay 1. Lactate transport assay is as described for Assay 1, except 10 mM L-lactate (rather than 50 mM) is added.

The IC50 is the concentration needed to halve the response being measured. The low end stands for greater potency, the high end for weaker potency.

The structures appear in SMILES notation.

Sequence of MCT1 (P53985 whole entry): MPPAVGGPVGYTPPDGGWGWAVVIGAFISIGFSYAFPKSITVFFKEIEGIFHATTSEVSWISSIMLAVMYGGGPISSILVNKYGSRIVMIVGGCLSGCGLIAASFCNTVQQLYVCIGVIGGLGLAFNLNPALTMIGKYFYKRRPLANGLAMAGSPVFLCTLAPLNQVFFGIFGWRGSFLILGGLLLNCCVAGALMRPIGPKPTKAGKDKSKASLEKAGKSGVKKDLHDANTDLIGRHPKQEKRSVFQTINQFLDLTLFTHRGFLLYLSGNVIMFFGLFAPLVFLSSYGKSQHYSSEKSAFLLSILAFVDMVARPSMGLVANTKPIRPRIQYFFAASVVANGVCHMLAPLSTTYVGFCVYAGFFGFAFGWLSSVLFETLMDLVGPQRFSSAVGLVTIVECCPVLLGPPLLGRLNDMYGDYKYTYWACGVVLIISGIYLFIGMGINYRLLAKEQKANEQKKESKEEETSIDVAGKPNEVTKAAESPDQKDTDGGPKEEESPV
Sequence of MCT1 (P35613 140-385 partner): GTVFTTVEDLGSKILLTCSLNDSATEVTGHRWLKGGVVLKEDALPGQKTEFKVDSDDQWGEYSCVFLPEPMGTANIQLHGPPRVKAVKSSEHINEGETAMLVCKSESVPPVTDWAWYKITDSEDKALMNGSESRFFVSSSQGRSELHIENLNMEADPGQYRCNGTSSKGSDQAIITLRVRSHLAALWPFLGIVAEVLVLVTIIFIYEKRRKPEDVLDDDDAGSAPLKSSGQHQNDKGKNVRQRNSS
Sequence of MCT4 (O15427 whole entry, looked up): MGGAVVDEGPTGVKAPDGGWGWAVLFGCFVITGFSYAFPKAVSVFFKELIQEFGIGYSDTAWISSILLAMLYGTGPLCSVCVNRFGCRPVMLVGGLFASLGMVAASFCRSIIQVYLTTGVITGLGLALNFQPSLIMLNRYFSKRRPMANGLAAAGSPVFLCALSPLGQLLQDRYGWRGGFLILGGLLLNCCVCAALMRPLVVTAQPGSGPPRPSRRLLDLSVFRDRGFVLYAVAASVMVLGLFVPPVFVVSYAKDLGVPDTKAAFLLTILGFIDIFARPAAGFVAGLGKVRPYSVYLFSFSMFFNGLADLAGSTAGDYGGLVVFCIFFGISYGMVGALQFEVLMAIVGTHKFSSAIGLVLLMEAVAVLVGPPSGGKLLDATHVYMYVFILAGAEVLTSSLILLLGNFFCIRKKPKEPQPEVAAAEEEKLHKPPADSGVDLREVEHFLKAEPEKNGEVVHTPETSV
Sequence of MCT4 (P35613 whole entry partner, looked up): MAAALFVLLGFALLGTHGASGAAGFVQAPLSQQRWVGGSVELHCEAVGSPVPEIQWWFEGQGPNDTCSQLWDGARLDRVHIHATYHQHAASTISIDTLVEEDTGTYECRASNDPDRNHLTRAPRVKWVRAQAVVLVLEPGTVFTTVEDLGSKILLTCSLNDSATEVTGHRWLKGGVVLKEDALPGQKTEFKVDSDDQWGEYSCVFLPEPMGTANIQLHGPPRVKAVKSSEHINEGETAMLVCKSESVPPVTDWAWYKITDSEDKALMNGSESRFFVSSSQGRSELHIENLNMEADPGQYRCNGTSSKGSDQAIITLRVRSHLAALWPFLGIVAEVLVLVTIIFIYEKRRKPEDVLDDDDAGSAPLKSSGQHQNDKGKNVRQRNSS

On to `COc1cccc(-c2cc(COC(C)(C)C(=O)O)nn2Cc2ccccc2C(C)C)c1` [Example 31, 2-[[1-[(2-Isopropylphenyl)methyl]-5-(3-methoxyphenyl)pyrazol-3-yl]methoxy]-2-methyl-propanoic acid], for which the IC50 on MCT4 came to 53 nM; at MCT1, 42000 nM.
Turning to `CC(C)(OCc1cc(-c2cccc(OC3CCC3)c2)n(Cc2ccccc2Cl)n1)C(=O)O` [Example 37, 2-[[1-[(2-Chlorophenyl)methyl]-5-[3-(cyclobutoxy)phenyl]pyrazol-3-yl]methoxy]-2-methyl-propanoic acid], the IC50 against MCT4 came out at 7.6 nM; against MCT1, 8400 nM.
For the molecule `CC(C)(OCc1cc(-c2ccsc2)n(Cc2ccccc2Cl)n1)C(=O)O` [Example 24, 2-[[1-[(2-Chlorophenyl)methyl]-5-(3-thienyl)pyrazol-3-yl]methoxy]-2-methyl-propanoic acid], the 50% inhibitory concentration (IC50) at MCT4 was 30 nM; at MCT1, over 100000 nM.
With `CC(C)(OCc1cc(-c2cccc(S(C)(=O)=O)c2)n(Cc2ccccc2Cl)n1)C(=O)O` [Example 70, 2-([1-[(2-chlorophenyl)methyl]-5-(3-methanesulfonylphenyl)-1H-pyrazol-3-yl]methoxy)-2-methylpropanoic Acid], the IC50 against MCT4 was 9300 nM; against MCT1, over 100000 nM.
Consider `CC(C)CNc1cccc(-c2cc(COC(C)(C)C(=O)O)nn2Cc2ccccc2Cl)c1` [Example 73, 2-([1-[(2-chlorophenyl)methyl]-5-[3-[(2-methylpropyl)amino]phenyl]-1H-pyrazol-3-yl]methoxy)-2-methylpropanoic Acid], for which the half-inhibitory concentration (IC50) against MCT4 was 21 nM; against MCT1 it was over 11000 nM.
The matching figures for `CC(C)(OCc1cc(-c2cncs2)n(Cc2ccccc2Cl)n1)C(=O)O` [Example 49, 2-([1-[(o-Chlorophenyl)methyl]-5-(1,3-thiazol-5-yl)-1H-pyrazol-3-yl]methoxy)-2-methylpropionic acid]: 240 nM and 130000 nM.
Take `CC(C)c1cccc(-c2cc(COC(C)(C)C(=O)O)nn2Cc2ccccc2Cl)c1` [Example 51, 2-([1-[(2-Chlorophenyl)methyl]-5-[3-(propan-2-yl)phenyl]-1H-pyrazol-3-yl]methoxy)-2-methylpropanoic Acid]: the IC50 was determined as 15 nM against MCT4 and 6000 nM on MCT1.
The corresponding values for `CC(C)(OCc1cc(-c2cccc(OC(F)(F)F)c2)n(Cc2ccccc2Cl)n1)C(=O)O` [Example 34, 2-[[1-[(2-Chlorophenyl)methyl]-5-[3-(trifluoromethoxy)phenyl]pyrazol-3-yl]methoxy]-2-methyl-propanoic acid] are 9.3 nM and over 11000 nM.
The corresponding values for `CN(C)c1cccc(-c2cc(COC(C)(C)C(=O)O)nn2Cc2ccccc2Cl)c1` [Example 50, 2-([1-[(o-Chlorophenyl)methyl]-5-[m-(dimethylamino)phenyl]-1H-pyrazol-3-yl]methoxy)-2-methylpropionic acid] are 70 nM and 34000 nM.
In the case of `CCOc1cccc(-c2cc(COC(C)(C)C(=O)O)nn2Cc2ccccc2Cl)c1` [Example 28, 2-[[1-[(2-Chlorophenyl)methyl]-5-(3-ethoxyphenyl)pyrazol-3-yl]methoxy]-2-methyl-propanoic acid], the half-maximal inhibitory concentration (IC50) was 12 nM against MCT4 and 15000 nM at MCT1.
The matching figures for `CCC(CC)(OCc1cc(-c2cccc(OC)c2)n(Cc2ccccc2Cl)n1)C(=O)O` [Example 67]: 11 nM and 17000 nM.
Regarding `CC(C)(OCc1cc(-c2cccc(N3CCOCC3)c2)n(Cc2ccccc2Cl)n1)C(=O)O` [Example 46, 2-[[1-[(2-Chlorophenyl)methyl]-5-(3-morpholinophenyl)pyrazol-3-yl]methoxy]-2-methyl-propanoic acid], the IC50 at MCT4 was found to be 142 nM; at MCT1, 47000 nM.
The matching figures for `COc1cccc(Cn2nc(COC(C)(C)C(=O)O)cc2-c2cccc(OCC(C)C)c2)c1` [Example 62, 2-([1-[(3-methoxyphenyl)methyl]-5-[3-(2-methylpropoxy)phenyl]-1H-pyrazol-3-yl]methoxy)-2-methylpropanoic acid]: 33 nM and 27000 nM.
Take `CC(C)(OCc1cc(-c2cccc(OCC(F)(F)F)c2)n(Cc2ccccc2Cl)n1)C(=O)O` [Example 43, 2-[[1-[(2-Chlorophenyl)methyl]-5-[3-(2,2,2-trifluoroethoxy)phenyl]pyrazol-3-yl]methoxy]-2-methyl-propanoic acid]: the IC50 on MCT4 is 13 nM; on MCT1, over 33000 nM.
For `CC(C)NC(=O)c1cccc(-c2cc(COC(C)(C)C(=O)O)nn2Cc2ccccc2Cl)c1` [Example 74, 2-([1-[(o-Chlorophenyl)methyl]-5-[m-(isopropylamino)carbonylphenyl]-1H-pyrazol-3-yl]methoxy)-2-methylpropionic Acid], the figures for the 50% inhibitory concentration (IC50) on MCT4 and at MCT1 were 6400 nM and over 100000 nM, respectively.
As for `CC(C)(OCc1cc(Oc2ccccc2)n(Cc2ccccc2Cl)n1)C(=O)O` [Example 76, 2-([1-[(2-Chlorophenyl)methyl]-5-phenoxy-1H-pyrazol-3-yl]methoxy)-2-methylpropanoic Acid], the IC50 at MCT4 worked out at 400 nM; against MCT1 it was 38000 nM.
The corresponding values for `COc1cccc(-c2cc(COC(C)(C)C(=O)O)nn2Cc2ccccc2C)c1` [Example 32, 2-[[5-(3-Methoxyphenyl)-1-(o-tolylmethyl)pyrazol-3-yl]methoxy]-2-methyl-propanoic acid] are 79 nM and 83000 nM.
